Key:
Assay type in all cases: biochemical
[1] = target: PI3Kδ (Homo sapiens, UniProt O00329); assay: Fluorescent determination of PI3Kinase enzyme activity (HTRF), PI3Kδ; conditions: for inhibition at 0.1 µM: 100 nM (underlined values: 300 nM)
From the text: (§1) Fluorescent Determination of PI3Kinase Enzyme Activity
(§2) Phosphoinositide 3 kinases (PI3K) belong to a class of Lipid kinases that play a critical role in the regulation of several key cellular processes. The PI3K are capable of phosphorylating the 3-hydroxy position of phosphoinositols thereby generating second messengers involved in downstream signalling events. The homogenous time resolved fluorescence (HTRF) assay allows detection of 3,4,5-triphosphate (PIP3) formed as a result of phosphorylation of phosphotidylinositol 4,5-biphosphate (PIP2) by PI3K isoforms such as α, […], γ or δ.
(§3) PI3K isoform activity for α, β, γ or δ is to be determined using a PI3K human HTRF™ Assay Kit (Millipore, Billerica, Mass.) with modifications. All incubations were carried out at room temperature. Briefly, 0.5 μl of 40× inhibitor (in 100% DMSO) or 100% DMSO were added to each well of a 384-well black plate (Greiner Bio-One, Monroe, N.C.) containing 14.5 μl 1× reaction buffer/PIP2 (10 mM MgCl2, 5 mM DTT, 1.38 μM PIP2) mix with or without enzyme and incubated for 10 min. After the initial incubation, 5 μl/well of 400 μM ATP was added and incubated for an additional 30 minutes. Reaction was terminated by adding 5 μl/well stop solution (Millipore, Billerica, Mass.). Five microliters of detection mix (Millipore, Billerica, Mass.) were then added to each well and was incubated for 6-18 h in the dark. HRTF ratio was measured on a microplate reader (BMG Labtech, Germany) at an excitation wavelength of 337 nm and emission wavelengths of 665 and 620 nm with an integration time of 400 μsec. Data was analyzed using Graphpad Prism (Graphpad software; San Diego Calif.) for IC50 determination).

[2] = target: PI3Kγ (Homo sapiens, UniProt P48736); assay: Fluorescent determination of PI3Kinase enzyme activity (HTRF), PI3Kγ; conditions: for inhibition at 0.1 µM: 100 nM (underlined values: 300 nM)
From the text: as §1, §2, §3

[3] = target: PI3Kα (Homo sapiens, UniProt P42336); assay: Fluorescent determination of PI3Kinase enzyme activity (HTRF), PI3Kα
From the text: as §1, §2, §3

[4] = target: PI3Kβ (Homo sapiens, UniProt P42338); assay: Fluorescent determination of PI3Kinase enzyme activity (HTRF), PI3Kβ
From the text: as §1, §2, §3

PI3Kγ, sequence (P48736 whole entry): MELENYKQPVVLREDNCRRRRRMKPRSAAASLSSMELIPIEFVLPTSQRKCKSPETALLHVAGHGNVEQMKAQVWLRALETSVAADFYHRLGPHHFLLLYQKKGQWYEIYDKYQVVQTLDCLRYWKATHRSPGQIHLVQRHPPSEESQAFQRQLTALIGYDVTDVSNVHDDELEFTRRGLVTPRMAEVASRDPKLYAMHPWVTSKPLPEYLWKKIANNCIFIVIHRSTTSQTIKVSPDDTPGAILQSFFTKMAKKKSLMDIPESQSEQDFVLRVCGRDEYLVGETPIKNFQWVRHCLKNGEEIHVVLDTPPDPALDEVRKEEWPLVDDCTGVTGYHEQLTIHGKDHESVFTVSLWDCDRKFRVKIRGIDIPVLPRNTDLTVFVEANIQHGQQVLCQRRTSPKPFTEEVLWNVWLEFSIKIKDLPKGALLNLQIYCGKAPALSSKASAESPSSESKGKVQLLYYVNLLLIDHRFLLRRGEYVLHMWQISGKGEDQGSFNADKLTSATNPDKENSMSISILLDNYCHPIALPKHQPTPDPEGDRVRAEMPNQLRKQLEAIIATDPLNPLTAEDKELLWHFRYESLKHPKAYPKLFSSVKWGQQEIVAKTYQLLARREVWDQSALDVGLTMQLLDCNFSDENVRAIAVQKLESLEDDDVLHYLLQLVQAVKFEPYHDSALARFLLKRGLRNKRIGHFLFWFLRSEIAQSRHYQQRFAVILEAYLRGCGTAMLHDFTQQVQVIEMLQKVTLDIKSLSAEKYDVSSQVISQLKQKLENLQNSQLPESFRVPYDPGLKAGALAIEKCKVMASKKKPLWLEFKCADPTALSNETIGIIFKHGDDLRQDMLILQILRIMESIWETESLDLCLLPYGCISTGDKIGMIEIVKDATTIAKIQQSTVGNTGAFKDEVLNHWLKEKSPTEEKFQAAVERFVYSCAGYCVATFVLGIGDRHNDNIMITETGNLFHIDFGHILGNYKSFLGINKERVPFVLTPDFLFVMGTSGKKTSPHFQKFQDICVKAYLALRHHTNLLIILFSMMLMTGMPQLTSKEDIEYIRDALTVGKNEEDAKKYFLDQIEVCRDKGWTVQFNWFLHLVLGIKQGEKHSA
PI3Kβ, sequence (P42338 whole entry): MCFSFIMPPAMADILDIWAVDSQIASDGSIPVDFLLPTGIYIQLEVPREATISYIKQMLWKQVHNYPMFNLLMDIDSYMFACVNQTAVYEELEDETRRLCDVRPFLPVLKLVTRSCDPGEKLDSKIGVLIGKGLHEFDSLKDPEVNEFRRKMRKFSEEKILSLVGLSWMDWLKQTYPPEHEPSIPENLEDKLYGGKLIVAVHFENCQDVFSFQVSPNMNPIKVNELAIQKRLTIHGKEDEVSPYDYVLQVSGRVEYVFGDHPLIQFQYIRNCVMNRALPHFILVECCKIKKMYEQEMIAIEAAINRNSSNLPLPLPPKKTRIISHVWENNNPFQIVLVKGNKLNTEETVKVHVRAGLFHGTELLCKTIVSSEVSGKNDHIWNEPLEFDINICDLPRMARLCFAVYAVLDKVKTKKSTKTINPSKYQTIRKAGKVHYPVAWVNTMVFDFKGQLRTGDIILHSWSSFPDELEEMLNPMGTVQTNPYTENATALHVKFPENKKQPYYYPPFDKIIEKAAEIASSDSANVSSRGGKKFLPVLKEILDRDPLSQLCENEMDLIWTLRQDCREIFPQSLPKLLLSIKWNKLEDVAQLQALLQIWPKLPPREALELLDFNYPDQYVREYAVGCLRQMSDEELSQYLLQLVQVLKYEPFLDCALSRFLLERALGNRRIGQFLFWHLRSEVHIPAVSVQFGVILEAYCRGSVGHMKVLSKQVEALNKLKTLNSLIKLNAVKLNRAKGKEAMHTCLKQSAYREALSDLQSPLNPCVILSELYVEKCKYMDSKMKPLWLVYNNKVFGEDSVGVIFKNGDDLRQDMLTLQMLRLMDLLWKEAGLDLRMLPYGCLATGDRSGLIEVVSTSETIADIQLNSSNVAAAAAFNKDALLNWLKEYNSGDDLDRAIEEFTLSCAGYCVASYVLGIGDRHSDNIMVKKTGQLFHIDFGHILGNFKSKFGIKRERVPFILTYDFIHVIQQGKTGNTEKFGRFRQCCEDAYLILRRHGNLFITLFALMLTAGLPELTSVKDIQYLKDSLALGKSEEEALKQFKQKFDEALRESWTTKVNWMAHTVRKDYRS
PI3Kβ, sequence (P27986 whole entry partner): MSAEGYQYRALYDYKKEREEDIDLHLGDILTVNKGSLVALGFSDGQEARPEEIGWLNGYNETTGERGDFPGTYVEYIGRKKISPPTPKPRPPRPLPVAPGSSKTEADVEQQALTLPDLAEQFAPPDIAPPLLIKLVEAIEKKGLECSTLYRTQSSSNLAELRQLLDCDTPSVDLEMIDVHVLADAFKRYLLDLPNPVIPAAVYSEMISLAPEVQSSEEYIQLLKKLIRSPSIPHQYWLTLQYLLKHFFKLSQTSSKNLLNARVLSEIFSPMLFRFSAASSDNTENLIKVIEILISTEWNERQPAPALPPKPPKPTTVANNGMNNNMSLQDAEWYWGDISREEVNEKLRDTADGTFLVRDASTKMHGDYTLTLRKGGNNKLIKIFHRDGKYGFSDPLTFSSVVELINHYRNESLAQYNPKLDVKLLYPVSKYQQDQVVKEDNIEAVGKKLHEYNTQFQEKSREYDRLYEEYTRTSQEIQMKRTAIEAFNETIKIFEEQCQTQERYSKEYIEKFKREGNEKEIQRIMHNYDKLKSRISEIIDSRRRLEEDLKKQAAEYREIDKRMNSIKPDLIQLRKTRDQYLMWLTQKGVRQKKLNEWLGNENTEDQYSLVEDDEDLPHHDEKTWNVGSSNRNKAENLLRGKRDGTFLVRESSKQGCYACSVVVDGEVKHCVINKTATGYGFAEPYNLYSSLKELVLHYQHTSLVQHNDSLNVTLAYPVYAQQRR
PI3Kα, sequence (P42336 whole entry): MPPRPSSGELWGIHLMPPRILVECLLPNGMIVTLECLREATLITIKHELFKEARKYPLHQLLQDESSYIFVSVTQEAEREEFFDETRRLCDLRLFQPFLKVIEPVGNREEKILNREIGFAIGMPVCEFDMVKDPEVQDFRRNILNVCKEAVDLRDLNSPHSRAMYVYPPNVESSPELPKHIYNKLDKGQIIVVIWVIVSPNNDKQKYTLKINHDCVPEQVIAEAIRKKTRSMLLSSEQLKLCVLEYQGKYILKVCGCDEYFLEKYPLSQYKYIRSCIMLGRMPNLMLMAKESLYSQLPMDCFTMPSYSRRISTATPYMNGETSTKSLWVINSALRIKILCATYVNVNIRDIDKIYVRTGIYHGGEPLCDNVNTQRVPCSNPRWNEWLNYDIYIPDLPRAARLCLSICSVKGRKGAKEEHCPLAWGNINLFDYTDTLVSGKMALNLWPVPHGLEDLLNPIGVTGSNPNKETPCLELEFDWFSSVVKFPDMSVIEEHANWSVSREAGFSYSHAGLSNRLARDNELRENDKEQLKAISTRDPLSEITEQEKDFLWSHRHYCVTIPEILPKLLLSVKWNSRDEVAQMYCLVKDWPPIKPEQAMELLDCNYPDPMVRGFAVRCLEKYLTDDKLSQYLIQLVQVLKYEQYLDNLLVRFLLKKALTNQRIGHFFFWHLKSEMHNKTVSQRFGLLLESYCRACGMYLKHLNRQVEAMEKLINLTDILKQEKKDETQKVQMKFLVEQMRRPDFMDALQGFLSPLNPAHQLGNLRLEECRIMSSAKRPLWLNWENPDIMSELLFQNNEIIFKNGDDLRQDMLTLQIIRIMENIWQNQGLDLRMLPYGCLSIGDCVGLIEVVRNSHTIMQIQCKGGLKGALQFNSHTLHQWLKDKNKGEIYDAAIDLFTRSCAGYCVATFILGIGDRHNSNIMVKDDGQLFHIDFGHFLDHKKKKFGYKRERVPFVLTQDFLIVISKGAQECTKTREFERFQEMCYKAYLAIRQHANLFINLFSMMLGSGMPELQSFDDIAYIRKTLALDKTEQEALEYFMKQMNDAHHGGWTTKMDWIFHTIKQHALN
PI3Kα, sequence (P27986 whole entry partner): as the sequence (P27986 whole entry partner) above
PI3Kδ, sequence (O00329 whole entry): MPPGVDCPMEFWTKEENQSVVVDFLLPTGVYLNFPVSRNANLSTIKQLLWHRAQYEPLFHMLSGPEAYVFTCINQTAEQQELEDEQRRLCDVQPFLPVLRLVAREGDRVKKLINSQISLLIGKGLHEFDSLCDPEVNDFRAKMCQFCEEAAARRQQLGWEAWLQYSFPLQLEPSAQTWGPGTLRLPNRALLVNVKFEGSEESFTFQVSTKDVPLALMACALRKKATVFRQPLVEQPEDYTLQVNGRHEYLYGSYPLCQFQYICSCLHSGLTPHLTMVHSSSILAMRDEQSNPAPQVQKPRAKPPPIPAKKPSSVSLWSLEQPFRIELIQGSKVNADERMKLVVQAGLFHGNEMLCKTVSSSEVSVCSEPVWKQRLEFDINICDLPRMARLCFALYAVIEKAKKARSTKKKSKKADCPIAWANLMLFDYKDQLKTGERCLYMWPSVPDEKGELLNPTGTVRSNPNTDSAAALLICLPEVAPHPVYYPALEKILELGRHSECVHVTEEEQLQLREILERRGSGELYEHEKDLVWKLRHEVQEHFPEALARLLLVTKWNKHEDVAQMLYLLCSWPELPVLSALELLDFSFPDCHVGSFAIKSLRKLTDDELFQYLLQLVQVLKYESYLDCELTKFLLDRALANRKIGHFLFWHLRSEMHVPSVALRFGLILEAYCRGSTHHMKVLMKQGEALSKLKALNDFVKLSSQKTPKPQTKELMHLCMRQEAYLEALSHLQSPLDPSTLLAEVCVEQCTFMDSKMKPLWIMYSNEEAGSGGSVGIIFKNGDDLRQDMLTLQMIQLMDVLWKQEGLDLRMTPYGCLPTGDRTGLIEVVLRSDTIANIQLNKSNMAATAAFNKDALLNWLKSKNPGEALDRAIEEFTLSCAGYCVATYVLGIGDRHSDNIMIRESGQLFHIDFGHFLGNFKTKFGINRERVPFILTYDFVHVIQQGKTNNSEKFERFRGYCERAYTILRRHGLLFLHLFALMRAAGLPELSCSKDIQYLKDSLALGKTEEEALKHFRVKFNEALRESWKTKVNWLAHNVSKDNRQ
PI3Kδ, sequence (P27986 whole entry partner): as the sequence (P27986 whole entry partner) above

Compound | inhibition at 0.1 µM [1] [%] | inhibition at 0.1 µM [2] [%] | inhibition at 1 µM [3] [%] | inhibition at 1 µM [4] [%] | IC50 [1] [nM] | IC50 [2] [nM]
CC(C)Oc1ccc(-c2nn(C(C)c3cc4cccc(F)c4c(=O)n3-c3ccccc3)c3ncnc(N)c23)cc1F (stereo not drawn) [Example 2, 3-(1-(4-amino-3-(3-fluoro-4-isopropoxyphenyl)-1H-pyrazolo[3,4-d]pyrimidin-1-yl)ethyl)-8-fluoro-2-phenylisoquinolin-1(2H)-one] | 0 to 20 | 0 to 20 | 0 to 10 | 10 to 20 |  | 
CC(C)Oc1ccc(-c2nn(C(C)c3nc4cccc(F)c4c(=O)n3-c3ccccc3)c3ncnc(N)c23)cc1F (stereo not drawn) [Example 3, 2-(1-(4-amino-3-(3-fluoro-4-isopropoxyphenyl)-1H-pyrazolo[3,4-d]pyrimidin-1-yl)ethyl)-5-fluoro-3-phenylquinazolin-4(3H)-one] | 0 to 20 | 0 to 20 | 0 to 10 | 10 to 20 |  | 
CC(C)Oc1ccc(-c2nn(C(C)c3nc4ccc(F)cc4c(=O)n3-c3ccccc3)c3ncnc(N)c23)cc1F (stereo not drawn) [Example 4, 2-(1-(4-amino-3-(3-fluoro-4-isopropoxyphenyl)-1H-pyrazolo[3,4-d]pyrimidin-1-yl)ethyl)-6-fluoro-3-phenylquinazolin-4(3H)-one] | 0 to 20 | 40 to 60 | 0 to 10 | 20 to 40 |  | 
CC(C)Oc1ccc(-c2nn(C(C)c3cc4ccccc4c(=O)n3-c3ccccc3)c3ncnc(N)c23)cc1F (stereo not drawn) [Example 5, 3-(1-(4-amino-3-(3-fluoro-4-isopropoxyphenyl)-1H-pyrazolo[3,4-d]pyrimidin-1-yl)ethyl)-2-phenylisoquinolin-1(2H)-one] | 80 to 100 | 60 to 80 | 0 to 10 | 10 to 20 |  | 
CC(C)Oc1ccc(-c2nn([C@@H](C)c3cc4ccccc4c(=O)n3-c3ccccc3)c3ncnc(N)c23)cc1F [Example 5a, (+)-3-(1-(4-amino-3-(3-fluoro-4-isopropoxyphenyl)-1H-pyrazolo[3,4-d]pyrimidin-1-yl)ethyl)-2-phenylisoquinolin-1(2H)-one] | 80 to 100 | 60 to 80 | 0 to 10 | 20 to 40 | 3.05 | 22.2
CC(C)Oc1ccc(-c2nn(C(C)c3nc4ccccc4c(=O)n3-c3ccccc3)c3ncnc(N)c23)cc1F (stereo not drawn) [Example 6, 2-(1-(4-amino-3-(3-fluoro-4-isopropoxyphenyl)-1H-pyrazolo[3,4-d]pyrimidin-1-yl)ethyl)-3-phenylquinazolin-4(3H)-one] | 80 to 100 | 40 to 60 | 0 to 10 | 0 to 10 |  | 
CC(C)Oc1ccc(-c2nn([C@@H](C)c3nc4ccccc4c(=O)n3-c3ccccc3)c3ncnc(N)c23)cc1F [Example 6a, (+)-2-(1-(4-amino-3-(3-fluoro-4-isopropoxyphenyl)-1H-pyrazolo[3,4-d]pyrimidin-1-yl)ethyl)-3-phenylquinazolin-4(3H)-one] | 80 to 100 | 40 to 60 | 0 to 10 | 20 to 40 | 2.74 | 15
CC(c1cc2ccccc2c(=O)n1-c1ccccc1)n1nc(-c2ccc(O)c(F)c2)c2c(N)ncnc21 (stereo not drawn) [Example 7, 3-(1-(4-amino-3-(3-fluoro-4-hydroxyphenyl)-1H-pyrazolo[3,4-d]pyrimidin-1-yl)ethyl)-2-phenylisoquinolin-1(2H)-one] | 40 to 60 | 20 to 40 | 10 to 20 | 20 to 40 |  | 
C[C@@H](c1cc2ccccc2c(=O)n1-c1ccccc1)n1nc(-c2ccc(O)c(F)c2)c2c(N)ncnc21 [Example 7a, (+)-3-(1-(4-amino-3-(3-fluoro-4-hydroxyphenyl)-1H-pyrazolo[3,4-d]pyrimidin-1-yl)ethyl)-2-phenylisoquinolin-1(2H)-one] | 60 to 80 | 60 to 80 | 0 to 10 | 20 to 40 | 13.3 | 57.7
COc1ccc(-c2nn([C@@H](C)c3cc4ccccc4c(=O)n3-c3ccccc3)c3ncnc(N)c23)cc1NS(C)(=O)=O [Example 9a, (+)—N-(5-(4-amino-1-(1-(1-oxo-2-phenyl-1,2-dihydroisoquinolin-3-yl)ethyl)-1H-pyrazolo[3,4-d]pyrimidin-3-yl)-2-methoxyphenyl)methanesulfonamide] | 80 to 100 | 40 to 60 | 0 to 10 | 20 to 40 | 16.2 | 203
COc1ccc(-c2nn(C(C)c3nc4ccccc4c(=O)n3-c3ccccc3)c3ncnc(N)c23)cc1NS(C)(=O)=O (stereo not drawn) [Example 12, N-(5-(4-amino-1-(1-(4-oxo-3-phenyl-3,4-dihydroquinazolin-2-yl)ethyl)-1H-pyrazolo[3,4-d]pyrimidin-3-yl)-2-methoxyphenyl)methanesulfonamide] | 0 to 20 | 20 to 40 | 0 to 10 | 20 to 40 |  | 
C[C@@H](c1cc2cccc(Cl)c2c(=O)n1-c1ccccc1)n1nc(-c2ccc(O)c(F)c2)c2c(N)ncnc21 [Example 14a, (+)-3-(1-(4-amino-3-(3-fluoro-4-hydroxyphenyl)-1H-pyrazolo[3,4-d]pyrimidin-1-yl)ethyl)-8-chloro-2-phenylisoquinolin-1(2H)-one] | 80 to 100 | 80 to 100 | 0 to 10 | 10 to 20 | 4.2 | 19.5
C[C@@H](c1cc2cccc(F)c2c(=O)n1-c1ccccc1)n1nc(-c2ccc(O)c(F)c2)c2c(N)ncnc21 [Example 15a, (+)-3-(1-(4-amino-3-(3-fluoro-4-hydroxyphenyl)-1H-pyrazolo[3,4-d]pyrimidin-1-yl)ethyl)-8-fluoro-2-phenylisoquinolin-1(2H)-one] | 80 to 100 | 40 to 60 | 0 to 10 | 10 to 20 | 9.99 | 52
C[C@@H](c1nc2cccc(F)c2c(=O)n1-c1ccccc1)n1nc(-c2ccc(O)c(F)c2)c2c(N)ncnc21 [Example 16a, (+)-2-(1-(4-amino-3-(3-fluoro-4-hydroxyphenyl)-1H-pyrazolo[3,4-d]pyrimidin-1-yl)ethyl)-5-fluoro-3-phenylquinazolin-4(3H)-one] | 80 to 100 | 20 to 40 | 0 to 10 | 10 to 20 | 33.3 | 122
CC(c1cc2cccc(Cl)c2c(=O)n1-c1ccccc1)n1nc(-c2ccc(OC(F)F)c(F)c2)c2c(N)ncnc21 (stereo not drawn) [Example 17, 3-(1-(4-amino-3-(4-(difluoromethoxy)-3-fluorophenyl)-1H-pyrazolo[3,4-d]pyrimidin-1-yl)ethyl)-8-chloro-2-phenylisoquinolin-1(2H)-one] | 80 to 100 | 80 to 100 | 20 to 40 | 40 to 60 |  | 
C[C@@H](c1cc2cccc(Cl)c2c(=O)n1-c1ccccc1)n1nc(-c2ccc(OC(F)F)c(F)c2)c2c(N)ncnc21 [Example 17a, (+)-3-(1-(4-amino-3-(4-(difluoromethoxy)-3-fluorophenyl)-1H-pyrazolo[3,4-d]pyrimidin-1-yl)ethyl)-8-chloro-2-phenylisoquinolin-1(2H)-one] | 20 to 40 | 0 to 20 | 0 to 10 | 0 to 10 |  | 
